{"source": "patent US20140137294A1", "about": "“GLUCOSINOLATE TRANSPORTER PROTEIN AND USES THEREOF” (UNIVERSITY OF COPENHAGEN, priority 2010, published 2014)", "key": {"AtGTR1": {"target": "T1, AtGTR1 (Arabidopsis thaliana, UniProt Q944G5)", "T1 construct": "A library of Arabidopsis transporters available as full length cDNAs from the RIKEN bioresource center; expressed in transfected cells; host or cells: Xenopus oocytes injected with in vitro transcribed cRNA", "T1 sequence (Q944G5 31-636 limits assumed)": "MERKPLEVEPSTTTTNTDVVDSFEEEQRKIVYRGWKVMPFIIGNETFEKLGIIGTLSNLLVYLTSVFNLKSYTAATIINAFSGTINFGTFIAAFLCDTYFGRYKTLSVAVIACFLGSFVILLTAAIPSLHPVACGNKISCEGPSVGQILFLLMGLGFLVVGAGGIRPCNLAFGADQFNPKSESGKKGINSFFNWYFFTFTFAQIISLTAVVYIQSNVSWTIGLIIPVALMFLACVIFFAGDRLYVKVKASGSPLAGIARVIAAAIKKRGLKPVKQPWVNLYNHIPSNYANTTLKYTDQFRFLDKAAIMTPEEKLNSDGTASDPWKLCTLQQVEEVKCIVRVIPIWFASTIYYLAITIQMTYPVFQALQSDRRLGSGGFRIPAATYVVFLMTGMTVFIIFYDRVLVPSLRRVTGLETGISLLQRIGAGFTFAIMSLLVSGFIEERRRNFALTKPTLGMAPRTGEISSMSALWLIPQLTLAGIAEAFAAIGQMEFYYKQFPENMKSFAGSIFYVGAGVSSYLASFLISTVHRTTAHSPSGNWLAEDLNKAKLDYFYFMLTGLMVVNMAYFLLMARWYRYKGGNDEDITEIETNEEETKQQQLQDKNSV", "test": "Substrate-induced currents in voltage-clamped Xenopus oocytes expressing AtGTR1", "format": "cell-based", "conditions": "AtGTR1"}, "AtGTR2": {"target": "T2, AtGTR2 (Arabidopsis thaliana, UniProt Q9LV10)", "T2 construct": "expressed in transfected cells; host or cells: Xenopus oocytes injected with in vitro transcribed cRNA (vector pNB1u)", "T2 sequence (Q9LV10 1-616)": "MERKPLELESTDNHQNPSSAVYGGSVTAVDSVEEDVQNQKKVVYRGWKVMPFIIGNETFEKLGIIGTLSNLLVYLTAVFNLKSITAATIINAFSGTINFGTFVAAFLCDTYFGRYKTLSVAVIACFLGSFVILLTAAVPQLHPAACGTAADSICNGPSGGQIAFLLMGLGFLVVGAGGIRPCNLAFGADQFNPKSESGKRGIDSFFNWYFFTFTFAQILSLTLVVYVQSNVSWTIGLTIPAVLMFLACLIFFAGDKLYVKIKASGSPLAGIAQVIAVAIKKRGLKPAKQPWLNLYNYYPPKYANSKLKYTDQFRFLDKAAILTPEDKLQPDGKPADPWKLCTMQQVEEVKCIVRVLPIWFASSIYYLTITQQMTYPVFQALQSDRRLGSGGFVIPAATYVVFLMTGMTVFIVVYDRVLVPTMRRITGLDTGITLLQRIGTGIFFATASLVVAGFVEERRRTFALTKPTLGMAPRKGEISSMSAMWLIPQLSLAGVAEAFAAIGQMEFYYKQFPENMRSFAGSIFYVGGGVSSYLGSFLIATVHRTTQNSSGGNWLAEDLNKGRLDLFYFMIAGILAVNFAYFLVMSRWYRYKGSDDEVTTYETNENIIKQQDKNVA", "test": "Substrate-induced currents in voltage-clamped Xenopus oocytes expressing AtGTR2", "format": "cell-based", "method": "FIG. 3: Biochemical analysis of AtGTR1 and 2 mediated GSL transport in Xenopus oocytes. A and B, pH dependence of AtGTR-mediated GSL transport. A, AtGTR2 mediated 4-MTB uptake measured by LC-MS analysis of oocyte extracts, n=3 oocytes. B, AtGTR1 currents induced by 1 mM 4-MTB were measured at different membrane potentials at pH 5 ([…]), pH 6 (♦), and pH 7 (▴). Currents were normalized to the current induced at pH 5 at −60 mV, error bars are SD, n=4 oocytes. C and D, kinetic analysis of AtGTR-mediated glucosinolate transport. Normalized glucosinolate dependent currents at a membrane potential of −60 mV are plotted against 4-MTB concentrations, line indicates a fit of the Michaelis-Menten equation to the data; error bars are SD. For AtGTR1 (n=6 oocytes); For AtGTR2 (n=5 oocytes). Each oocyte-dataset were normalized to current elicited at 100 μM 4-MTB. E and F, substrate specificity of AtGTRs. E, AtGTR1 and AtGTR2 uptake of 0.04 mM C-14 labeled pOHBG at pH 5 in the presence of 2 mM 4-MTB, 2 mM NO3^−, 2 mM glucose+2 mM SO4^−−, or a solution of 2 mM Ala-His+2 mM Asp-Ala+2 mM Gly-Leu+2 mM Ala-Phe+2 mM Gly-Glu+2 mM Gly-Gly-Gly, error bars are SD, n=8 oocytes. F, AtGTR1 currents induced by endogenous and exogenous glucosinolates, representative positive, negative and neutral dipeptides and two tripeptides Currents were normalized to the current induced by 100 μM 4-MTB at pH 5 clamped at −60 mV, error bars are SD, n=4 oocytes.\nWhen current recordings were performed on oocytes expressing, respectively, AtGTR1 and AtGTR2 exposed to 100 μM 4-MTB at pH 5 and voltage clamped at −50 mV elicited inward currents in the 30 nA range. This indicates a net influx of positive ions through the AtGTRs upon exposure to GSLs. GSL-induced inward currents were voltage dependent increasing with hyperpolarizing membrane potential within the range of +30 to −120 mV (FIGS. 3B and F). […] This observation was also noticeable in substrate dependent transport rates measured by direct LC-MS detection of GSL uptake."}}, "data": [{"smiles": "CSCCCC/C(=N/OS(=O)(=O)O)S[C@@H]1O[C@H](CO)[C@@H](O)[C@H](O)[C@H]1O", "note": "[4-MTB, 4-methylthiobutyl glucosinolate]", "values": [{"measurement": "inward current", "setting": "AtGTR1; 100 μM substrate, pH 5, voltage clamped at −50 mV", "result": "~30", "unit": "nA"}, {"measurement": "Km", "setting": "AtGTR1; pH 5, clamped at −60 mV, Michaelis-Menten", "result": "20 ± 1.2", "unit": "µM"}, {"measurement": "inward current", "setting": "AtGTR2; 100 μM substrate, pH 5, voltage clamped at −50 mV, AtGTR2", "result": "~30", "unit": "nA"}, {"measurement": "substrate dependent transport rate at 500 μM, lower than at 250 μM and 1 mM", "setting": "AtGTR2; AtGTR2, 500 μM 4-MTB", "result": 25, "unit": "%"}, {"measurement": "Km", "setting": "AtGTR2; pH 5, clamped at −60 mV, Michaelis-Menten, AtGTR2", "result": "18.7 ± 4.2", "unit": "µM"}]}]}
